Results: ChEMBL document CHEMBL4765279, “Discovery of a novel series of imidazo[1',2':1,6]pyrido[2,3-d]pyrimidin derivatives as potent cyclin-dependent kinase 4/6 inhibitors” (Eur J Med Chem, 2020)
One block for each compound: values may come before it.

What was measured:
CDK6/Cyclin D3 = CDK6/Cyclin D3 (Homo sapiens, UniProt Q00534); assay: Inhibition of human full-length N-terminal GST tagged CDK6 (1 to 326 residues)/GST-tagged cyclinD3 (1 to 292 residues) expressed in baculovirus expression system using ULight-elF4E-binding protein 1 peptide as substrate measured after 30 mins by LANCE assay
CDK4/Cyclin D3 = CDK4/Cyclin D3 (Homo sapiens, UniProt P11802); assay: Inhibition of recombinant human full-length N-terminal GST-fused CDK4 (1 to 303 residues)/GST-tagged CyclinD3 (1 to 292 residues) expressed in baculovirus expression system using ULight-elF4E-binding protein 1 peptide as substrate measured after 30 mins by LANCE assay
U-87 MG [1] = assay: Antiproliferative activity against human U-87 MG cells assessed as cell growth inhibition measured after 4 to 6 days by celltiter-glo luminescent cell viability assay; format: functional, cell-based, U-87MG ATCC
COLO 205 [2] = assay: Antiproliferative activity against human COLO 205 cells assessed as cell growth inhibition measured after 4 to 6 days by celltiter-glo luminescent cell viability assay; format: functional, cell-based
CYP2C9 = CYP2C9 (Homo sapiens, UniProt P11712); assay: Inhibition of CYP2C9 in human liver microsomes at 10 uM measured after 20 mins in presence of NADPH by LC-MS/MS analysis relative to control; format: ADME
[3] = Toxicity in human U-87 MG cells xenografted BALB/c mouse assessed as body weight loss at 10 mg/kg, po qd for 16 days relative to control; format: organism-based; conditions: in vivo, 384 h, time 16 day
[4] = Oral bioavailability in Sprague-Dawley rat at 6 mg/kg by LC-MS/MS analysis; format: ADME, organism-based; conditions: in vivo
[5] = Half life in Sprague-Dawley rat at 6 mg/kg, po by LC-MS/MS analysis; format: ADME, organism-based; conditions: in vivo
[6] = molecular target: Cyclin-dependent kinase 1/cyclin B1 (Homo sapiens, UniProt P06493)
Description: Inhibition of CDK1/cyclin B (unknown origin)

U-87 MG [7] = assay: Antitumor activity against human U-87 MG cells xenografted in BALB/c mouse assessed as tumor growth at 10 mg/kg, po qd for 16 days relative to control; format: functional, U-87MG ATCC; conditions: time 16 day
MDA-MB-468 = assay: Antiproliferative activity against human MDA-MB-468 cells assessed as cell growth inhibition measured after 4 to 6 days by celltiter-glo luminescent cell viability assay; format: functional, cell-based
[8] = AUC (0 to t) in BALB/c mouse at 10 mg/kg, po by LC-MS/MS analysis; format: ADME, organism-based; parameters: dose 10 mg/kg; conditions: in vivo
[9] = Cmax in Sprague-Dawley rat at 6 mg/kg, po by LC-MS/MS analysis; format: ADME, organism-based; parameters: route oral, dose 6 mg/kg; conditions: in vivo
[10] = Cmax in BALB/c mouse at 10 mg/kg, po by LC-MS/MS analysis; format: ADME, organism-based; parameters: route oral, dose 10 mg/kg; conditions: in vivo
COLO 205 [11] = assay: Cell cycle arrest in human COLO 205 cells assessed as accumulation at G0/G1 phase at 200 nM measured after 24 hrs by propidium iodide staining based flow cytometry relative to control; format: functional
[12] = Intrinsic clearance in rat liver microsomes at 1 uM preincubated for 10 mins followed by NADPH addition and measured after 1 hr by LC-MS/MS analysis; format: ADME, Microsome; conditions: time 70 min, read-out: CLH
CDK2/Cyclin A2 = CDK2/Cyclin A2 (Homo sapiens, UniProt P24941)
Description: Inhibition of CDK2/cyclin A2 (unknown origin)

Cytochrome P450 3A4 = Cytochrome P450 3A4 (Homo sapiens, UniProt P08684); assay: Time-dependent inhibition of CYP3A4 in human liver microsomes at 10 uM in presence of NADPH by LC-MS/MS analysis; format: ADME
Cytochrome P450 1A2 = molecular target: T1, Cytochrome P450 1A2 (Homo sapiens, UniProt P05177); assay: Time-dependent inhibition of CYP1A2 in human liver microsomes at 10 uM in presence of NADPH by LC-MS/MS analysis; format: ADME
T1 sequence (P05177 whole entry): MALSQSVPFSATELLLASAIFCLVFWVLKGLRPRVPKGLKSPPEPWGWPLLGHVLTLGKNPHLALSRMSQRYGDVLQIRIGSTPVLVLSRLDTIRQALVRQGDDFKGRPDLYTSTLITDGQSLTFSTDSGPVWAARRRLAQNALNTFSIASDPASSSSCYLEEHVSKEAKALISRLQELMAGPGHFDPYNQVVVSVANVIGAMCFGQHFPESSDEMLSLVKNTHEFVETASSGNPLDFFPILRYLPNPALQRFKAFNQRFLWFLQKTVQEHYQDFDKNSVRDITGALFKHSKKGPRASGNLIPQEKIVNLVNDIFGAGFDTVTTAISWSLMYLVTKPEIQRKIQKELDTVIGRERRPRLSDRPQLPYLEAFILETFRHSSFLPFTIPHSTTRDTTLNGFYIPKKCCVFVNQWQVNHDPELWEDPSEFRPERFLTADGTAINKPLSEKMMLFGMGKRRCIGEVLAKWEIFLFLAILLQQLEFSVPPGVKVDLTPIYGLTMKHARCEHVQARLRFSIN

[13] = Half life in BALB/c mouse at 3 mg/kg, iv by LC-MS/MS analysis; format: ADME, organism-based; conditions: in vivo
CYP2D6 = CYP2D6 (Homo sapiens, UniProt P10635); assay: Inhibition of CYP2D6 in human liver microsomes at 10 uM measured after 20 mins in presence of NADPH by LC-MS/MS analysis relative to control; format: ADME
Cytochrome P450 2D6 = Cytochrome P450 2D6 (Homo sapiens, UniProt P10635); assay: Time-dependent inhibition of CYP2D6 in human liver microsomes at 10 uM in presence of NADPH by LC-MS/MS analysis; format: ADME
[14] = Volume of distribution at steady state in Sprague-Dawley rat at 3 mg/kg, iv by LC-MS/MS analysis; format: ADME, organism-based; conditions: in vivo, read-out: Vdss
[15] = Half life in BALB/c mouse at 10 mg/kg, po by LC-MS/MS analysis; format: ADME, organism-based; conditions: in vivo
[16] = Volume of distribution at steady state in BALB/c mouse at 3 mg/kg, iv by LC-MS/MS analysis; format: ADME, organism-based; conditions: in vivo, read-out: Vdss
CYP2C19 = CYP2C19 (Homo sapiens, UniProt P33261); assay: Inhibition of CYP2C19 in human liver microsomes at 10 uM measured after 20 mins in presence of NADPH by LC-MS/MS analysis relative to control; format: ADME
CYP1A2 = molecular target: T2, CYP1A2 (Homo sapiens, UniProt P05177); assay: Inhibition of CYP1A2 in human liver microsomes at 10 uM measured after 20 mins in presence of NADPH by LC-MS/MS analysis relative to control; format: ADME
T2 sequence (P05177 whole entry): T1 sequence (P05177 whole entry)

U-87 MG [17] = assay: Antitumor activity against human U-87 MG cells xenografted in BALB/c mouse assessed as tumor growth inhibition at 10 mg/kg, po qd for 16 days relative to control; format: functional, U-87MG ATCC; conditions: 384 h, time 16 day, read-out: TGI
Cytochrome P450 2C19 = Cytochrome P450 2C19 (Homo sapiens, UniProt P33261); assay: Time-dependent inhibition of CYP2C19 in human liver microsomes at 10 uM in presence of NADPH by LC-MS/MS analysis; format: ADME
CYP3A4 = CYP3A4 (Homo sapiens, UniProt P08684); assay: Inhibition of CYP3A4 in human liver microsomes at 10 uM measured after 20 mins in presence of NADPH by LC-MS/MS analysis relative to control; format: ADME
CDK9/cyclin T1 = CDK9/cyclin T1 (Homo sapiens, UniProt P50750)
Description: Inhibition of CDK9/cyclin T1 (unknown origin)

[18] = Intrinsic clearance in human liver microsomes at 1 uM preincubated for 10 mins followed by NADPH addition and measured after 1 hr by LC-MS/MS analysis; format: ADME, Microsome; conditions: time 70 min, read-out: CLH
[19] = Oral bioavailability in BALB/c mouse at 10 mg/kg by LC-MS/MS analysis; format: ADME, organism-based; conditions: in vivo
[20] = AUC (0 to t) in BALB/c mouse at 3 mg/kg, iv by LC-MS/MS analysis; format: ADME, organism-based; parameters: dose 3 mg/kg; conditions: in vivo
[21] = AUC (0 to t) in Sprague-Dawley rat at 3 mg/kg, iv by LC-MS/MS analysis; format: ADME, organism-based; parameters: dose 3 mg/kg; conditions: in vivo
[22] = AUC (0 to t) in Sprague-Dawley rat at 6 mg/kg, po by LC-MS/MS analysis; format: ADME, organism-based; parameters: dose 6 mg/kg; conditions: in vivo
[23] = Half life in Sprague-Dawley rat at 3 mg/kg, iv by LC-MS/MS analysis; format: ADME, organism-based; conditions: in vivo
[24] = molecular target: Cyclin-dependent kinase 7/ cyclin H (Homo sapiens, UniProt P50613); assay: Inhibition of CDK7/cyclin H (unknown origin); format: protein-complex assay
Cytochrome P450 2C9 = Cytochrome P450 2C9 (Homo sapiens, UniProt P11712); assay: Time-dependent inhibition of CYP2C9 in human liver microsomes at 10 uM in presence of NADPH by LC-MS/MS analysis; format: ADME
Sequence of Cytochrome P450 2C9 (P11712 whole entry): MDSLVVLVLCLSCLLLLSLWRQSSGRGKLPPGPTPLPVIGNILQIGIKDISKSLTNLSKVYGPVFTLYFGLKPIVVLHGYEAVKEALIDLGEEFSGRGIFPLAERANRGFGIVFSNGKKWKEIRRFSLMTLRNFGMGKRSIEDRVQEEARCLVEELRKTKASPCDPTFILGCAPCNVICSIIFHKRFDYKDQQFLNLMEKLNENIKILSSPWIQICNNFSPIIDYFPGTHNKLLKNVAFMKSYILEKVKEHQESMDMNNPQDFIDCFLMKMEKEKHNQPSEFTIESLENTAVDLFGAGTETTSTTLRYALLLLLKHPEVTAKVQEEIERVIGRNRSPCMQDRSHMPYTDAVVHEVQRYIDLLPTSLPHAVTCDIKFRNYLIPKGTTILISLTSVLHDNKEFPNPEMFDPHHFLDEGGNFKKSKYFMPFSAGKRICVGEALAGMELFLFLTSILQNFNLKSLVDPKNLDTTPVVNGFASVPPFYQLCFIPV

Sequence of CDK4/Cyclin D3 (P11802 whole entry, the tested form may be a part): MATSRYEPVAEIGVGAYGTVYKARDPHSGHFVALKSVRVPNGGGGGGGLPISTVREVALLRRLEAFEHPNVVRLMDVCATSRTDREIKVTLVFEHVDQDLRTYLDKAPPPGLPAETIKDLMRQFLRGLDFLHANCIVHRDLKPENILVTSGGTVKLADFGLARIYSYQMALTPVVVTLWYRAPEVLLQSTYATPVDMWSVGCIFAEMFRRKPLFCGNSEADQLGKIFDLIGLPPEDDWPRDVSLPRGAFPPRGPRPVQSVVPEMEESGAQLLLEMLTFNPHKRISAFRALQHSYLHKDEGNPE
Sequence of CDK4/Cyclin D3 (P30281 whole entry, further chain, the tested form may be a part): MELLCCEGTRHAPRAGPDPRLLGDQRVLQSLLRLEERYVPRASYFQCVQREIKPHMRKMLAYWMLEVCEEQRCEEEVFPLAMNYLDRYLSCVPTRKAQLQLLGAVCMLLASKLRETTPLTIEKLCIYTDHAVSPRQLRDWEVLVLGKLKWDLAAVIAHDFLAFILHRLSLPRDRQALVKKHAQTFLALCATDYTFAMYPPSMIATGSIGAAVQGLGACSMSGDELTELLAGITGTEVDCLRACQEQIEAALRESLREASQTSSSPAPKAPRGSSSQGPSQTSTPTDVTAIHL
Sequence of CDK6/Cyclin D3 (Q00534 whole entry, looked up, the tested form may be a part): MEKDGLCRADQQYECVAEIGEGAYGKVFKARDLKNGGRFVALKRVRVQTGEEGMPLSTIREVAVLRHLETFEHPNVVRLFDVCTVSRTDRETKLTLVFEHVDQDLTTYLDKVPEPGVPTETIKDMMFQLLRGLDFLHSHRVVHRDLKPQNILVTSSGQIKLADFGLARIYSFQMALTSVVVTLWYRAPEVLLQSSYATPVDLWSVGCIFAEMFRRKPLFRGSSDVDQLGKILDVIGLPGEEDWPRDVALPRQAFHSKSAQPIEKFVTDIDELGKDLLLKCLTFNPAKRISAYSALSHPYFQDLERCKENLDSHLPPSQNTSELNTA
Sequence of Cyclin-dependent kinase 1/cyclin B1 (P06493 whole entry): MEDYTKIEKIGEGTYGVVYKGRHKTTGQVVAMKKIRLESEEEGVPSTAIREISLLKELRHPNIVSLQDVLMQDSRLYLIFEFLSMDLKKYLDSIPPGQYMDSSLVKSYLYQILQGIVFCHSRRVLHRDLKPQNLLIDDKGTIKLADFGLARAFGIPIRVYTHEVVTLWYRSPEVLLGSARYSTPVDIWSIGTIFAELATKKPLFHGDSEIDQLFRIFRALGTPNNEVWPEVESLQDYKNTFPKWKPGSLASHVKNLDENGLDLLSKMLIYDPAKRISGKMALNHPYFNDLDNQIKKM
Sequence of Cyclin-dependent kinase 1/cyclin B1 (P14635 whole entry, further chain): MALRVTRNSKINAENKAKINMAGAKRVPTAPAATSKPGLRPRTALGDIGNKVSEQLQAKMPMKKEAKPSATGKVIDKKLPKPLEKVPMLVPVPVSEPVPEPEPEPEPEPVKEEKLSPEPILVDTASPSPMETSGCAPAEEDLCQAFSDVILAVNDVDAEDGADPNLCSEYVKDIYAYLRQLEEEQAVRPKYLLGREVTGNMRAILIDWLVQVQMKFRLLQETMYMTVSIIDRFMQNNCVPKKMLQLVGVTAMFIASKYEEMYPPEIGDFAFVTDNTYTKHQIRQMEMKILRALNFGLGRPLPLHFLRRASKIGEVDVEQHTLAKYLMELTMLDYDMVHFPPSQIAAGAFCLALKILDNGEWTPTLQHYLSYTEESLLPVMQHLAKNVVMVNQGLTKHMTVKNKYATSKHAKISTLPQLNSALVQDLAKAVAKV
Sequence of CDK9/cyclin T1 (O60563 whole entry): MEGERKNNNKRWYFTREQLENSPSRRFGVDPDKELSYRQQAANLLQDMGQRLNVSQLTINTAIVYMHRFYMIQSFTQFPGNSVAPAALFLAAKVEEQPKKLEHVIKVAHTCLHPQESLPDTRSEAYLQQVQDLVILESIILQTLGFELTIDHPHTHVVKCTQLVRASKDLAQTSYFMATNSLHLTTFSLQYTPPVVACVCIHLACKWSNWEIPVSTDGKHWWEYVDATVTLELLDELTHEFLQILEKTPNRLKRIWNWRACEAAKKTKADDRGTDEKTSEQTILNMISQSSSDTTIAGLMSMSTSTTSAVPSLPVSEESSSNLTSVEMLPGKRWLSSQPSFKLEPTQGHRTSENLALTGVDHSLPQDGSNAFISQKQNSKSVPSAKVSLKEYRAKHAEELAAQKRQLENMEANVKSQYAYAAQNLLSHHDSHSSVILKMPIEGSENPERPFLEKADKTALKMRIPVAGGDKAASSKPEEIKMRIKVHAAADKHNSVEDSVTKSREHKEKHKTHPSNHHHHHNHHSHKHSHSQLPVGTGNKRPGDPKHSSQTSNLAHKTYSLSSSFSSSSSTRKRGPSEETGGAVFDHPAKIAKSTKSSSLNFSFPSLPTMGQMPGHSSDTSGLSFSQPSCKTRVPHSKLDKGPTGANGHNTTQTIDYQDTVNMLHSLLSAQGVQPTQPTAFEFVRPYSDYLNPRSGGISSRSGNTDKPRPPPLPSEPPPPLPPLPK
Sequence of CDK9/cyclin T1 (P50750 whole entry): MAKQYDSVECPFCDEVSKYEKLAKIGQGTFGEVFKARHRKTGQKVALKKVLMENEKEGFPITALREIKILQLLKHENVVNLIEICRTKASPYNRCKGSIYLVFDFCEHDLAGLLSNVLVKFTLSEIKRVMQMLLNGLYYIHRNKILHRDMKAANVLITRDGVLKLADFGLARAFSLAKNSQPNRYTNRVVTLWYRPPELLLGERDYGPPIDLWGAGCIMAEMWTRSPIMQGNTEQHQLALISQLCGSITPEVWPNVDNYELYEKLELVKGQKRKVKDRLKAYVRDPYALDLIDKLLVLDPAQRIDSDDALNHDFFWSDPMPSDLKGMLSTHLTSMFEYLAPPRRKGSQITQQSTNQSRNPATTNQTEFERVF
Sequence of CYP2C9 (P11712 whole entry): as the sequence (P11712 whole entry) above
Sequence of Cyclin-dependent kinase 7/ cyclin H (P51946 whole entry): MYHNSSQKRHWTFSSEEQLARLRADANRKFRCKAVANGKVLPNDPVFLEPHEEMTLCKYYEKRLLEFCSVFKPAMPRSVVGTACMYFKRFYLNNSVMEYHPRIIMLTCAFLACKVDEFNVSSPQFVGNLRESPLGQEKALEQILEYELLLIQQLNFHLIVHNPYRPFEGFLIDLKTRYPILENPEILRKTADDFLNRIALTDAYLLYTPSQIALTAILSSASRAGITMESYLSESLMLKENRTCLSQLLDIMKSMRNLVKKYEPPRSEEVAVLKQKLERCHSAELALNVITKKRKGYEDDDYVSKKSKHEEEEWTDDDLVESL
Sequence of Cyclin-dependent kinase 7/ cyclin H (P50613 whole entry): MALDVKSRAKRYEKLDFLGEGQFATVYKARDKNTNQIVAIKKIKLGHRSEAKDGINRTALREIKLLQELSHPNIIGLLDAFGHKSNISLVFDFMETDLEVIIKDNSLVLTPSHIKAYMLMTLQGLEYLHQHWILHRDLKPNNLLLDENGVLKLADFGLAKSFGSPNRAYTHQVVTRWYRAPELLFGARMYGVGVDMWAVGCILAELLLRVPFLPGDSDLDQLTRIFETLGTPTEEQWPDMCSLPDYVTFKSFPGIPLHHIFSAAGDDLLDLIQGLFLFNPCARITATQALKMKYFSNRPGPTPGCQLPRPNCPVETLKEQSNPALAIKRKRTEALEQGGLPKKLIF
Sequence of Cytochrome P450 2C19 (P33261 whole entry): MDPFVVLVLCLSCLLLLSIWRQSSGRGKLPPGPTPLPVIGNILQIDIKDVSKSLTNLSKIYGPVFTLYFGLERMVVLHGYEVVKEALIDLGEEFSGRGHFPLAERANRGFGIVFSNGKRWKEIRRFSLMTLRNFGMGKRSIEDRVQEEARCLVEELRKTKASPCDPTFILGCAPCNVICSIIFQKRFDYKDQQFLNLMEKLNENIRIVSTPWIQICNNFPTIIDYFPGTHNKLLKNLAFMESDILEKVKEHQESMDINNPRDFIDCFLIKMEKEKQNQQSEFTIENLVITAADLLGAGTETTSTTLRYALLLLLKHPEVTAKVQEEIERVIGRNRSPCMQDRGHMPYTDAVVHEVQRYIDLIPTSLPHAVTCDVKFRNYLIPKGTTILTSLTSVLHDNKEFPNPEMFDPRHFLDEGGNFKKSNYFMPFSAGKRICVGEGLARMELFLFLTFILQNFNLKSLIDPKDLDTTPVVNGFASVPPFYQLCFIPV

SMILES: Cc1c(C#N)c2nc(C(C)C)cn2c2nc(Nc3ccc(N4CCNCC4)cc3)ncc12
IC50 (CDK6/Cyclin D3): 0.009 µM | IC50 (CDK4/Cyclin D3): 0.0103 µM | IC50 (U-87 MG [1]): 0.585 µM

SMILES: CC(=O)c1c(C)c2cnc(Nc3ccc(N4CCNCC4)cc3)nc2n2cc(C3CCCCC3)nc12
IC50 (CDK6/Cyclin D3): 0.0222 µM | IC50 (CDK4/Cyclin D3): 0.0189 µM | IC50 (U-87 MG [1]): 0.122 µM | IC50 (COLO 205 [2]): 0.121 µM

SMILES: CC(=O)c1c(C)c2cnc(Nc3ccc(N4CCNCC4)cc3)nc2n2cc(C(=O)N3CCCC3)nc12
IC50 (CDK6/Cyclin D3): 0.15 µM | IC50 (CDK4/Cyclin D3): 0.059 µM | IC50 (U-87 MG [1]): > 10 µM

Further lines, with some results ahead:

IC50 (CDK6/Cyclin D3): 0.0043 µM | IC50 (CDK4/Cyclin D3): 0.0045 µM | IC50 (U-87 MG [1]): 0.536 µM | IC50 (COLO 205 [2]): 1.42 µM
SMILES: CC(=O)c1c(C)c2cnc(Nc3ccc(N4CCC(N(C)C)C4)cn3)nc2n2cc(C(C)C)nc12 (configuration not stated)

IC50 (CDK6/Cyclin D3): 0.0257 µM | IC50 (CDK4/Cyclin D3): 0.0099 µM | IC50 (U-87 MG [1]): 0.539 µM | IC50 (COLO 205 [2]): 0.534 µM
SMILES: CC(=O)c1c(C)c2cnc(Nc3ccc(N4CC5(CCOCC5)C4)cn3)nc2n2cc(C(C)C)nc12

inhibition at […], 10 µM (CYP2C9): 12% | bioavailability [4]: 66.9% | IC50 (CDK6/Cyclin D3): 0.0048 µM | half-life [5]: 4.44 h | IC50 [6]: 2.08 µM | IC50 (MDA-MB-468): 0.984 µM | AUC(0-t) [8]: 0.775 µg·h/mL | Cmax [9]: 0.17 µg/mL | Cmax [10]: 0.57 µg/mL | IC50 (CDK4/Cyclin D3): 0.0027 µM | microsomal CLint at 1 µM [12]: 6 µL/min/mg | IC50 (CDK2/Cyclin A2): 0.0603 µM | IC50 (U-87 MG [1]): 0.0493 µM | TDI (Cytochrome P450 3A4): Not Active | TDI (Cytochrome P450 1A2): Active | half-life [13]: 4.64 h | inhibition at […], 10 µM (CYP2D6): 7% | IC50 (COLO 205 [2]): 0.256 µM | TDI (Cytochrome P450 2D6): Not Active | Vd [14]: 35.7 L/kg | half-life [15]: 3.68 h | Vd [16]: 33.7 L/kg | inhibition at […], 10 µM (CYP2C19): 19% | inhibition at […], 10 µM (CYP1A2): 17% | TDI (Cytochrome P450 2C19): Not Active | inhibition at […], 10 µM (CYP3A4): 18% | IC50 (CDK9/cyclin T1): 0.221 µM | microsomal CLint at 1 µM [18]: 6 µL/min/mg | bioavailability [19]: 53.1% | AUCt [20]: 0.44 µg·h/mL | AUCt [21]: 1.334 µg·h/mL | AUC(0-t) [22]: 1.78 µg·h/mL | half-life [23]: 5.57 h | IC50 [24]: 0.204 µM | TDI (Cytochrome P450 2C9): Not Active
SMILES: CC(=O)c1c(C)c2cnc(Nc3ccc(N4CCNCC4)cc3)nc2n2cc(C(C)(C)C)nc12
Activity [3]: < 20% | T/C (U-87 MG [7]): 37% | Activity (COLO 205 [11]): 95.4% | inhibition in vivo at 10 mg/kg (U-87 MG [17]): 70%
